pIC50: −log10 of the molar value. Starred links: 1 amine or outer side, 2 acyl side, 3 side chain; linkers in the order of their positions; H or OH if unused. Positions of bridges follow the written chain, without caps; N, C: chain ends. Non-standard residues stand in square brackets, D forms with d. Residues, ends and D or L forms follow the SMILES beside them. *: point of attachment. hPhe(3-Cl-4-CF3) = N[C@@H](CCc1ccc(C(F)(F)F)c(Cl)c1)C(=O)O; X38 = CN([C@@H](Cc1cccc(OC(F)(F)F)c1)C(=O)[*:2])[*:1]; NMePhe(4-CF3) = CN[C@@H](Cc1ccc(C(F)(F)F)cc1)C(=O)O; X23 = CN([C@@H](Cc1ccccc1OC(F)(F)F)C(=O)[*:2])[*:1]; NMePhe(3-Br) = CN[C@@H](Cc1cccc(Br)c1)C(=O)O; NMePhe(3-Cl) = CN[C@@H](Cc1cccc(Cl)c1)C(=O)O; NMePhe(4-Br) = CN[C@@H](Cc1ccc(Br)cc1)C(=O)O; NMePhe(3-Me) = CN[C@@H](Cc1cccc(C)c1)C(=O)O; NMePhe(4-Me) = CN[C@@H](Cc1ccc(C)cc1)C(=O)O; NMePhe(2-Cl) = CN[C@@H](Cc1ccccc1Cl)C(=O)O; NMePhe(4-F) = CN[C@@H](Cc1ccc(F)cc1)C(=O)O; NMedβ3hAla = C[C@H](CC(=O)[*:2])N(C)[*:1]; NMehPhe = CN[C@@H](CCc1ccccc1)C(=O)O; NMeY = CN[C@@H](Cc1ccc(O)cc1)C(=O)O; NMeCha = CN[C@@H](CC1CCCCC1)C(=O)O; NMeChg = CN[C@H](C(=O)O)C1CCCCC1; NMeD = CN[C@@H](CC(=O)O)C(=O)O; NMeL = CN[C@@H](CC(C)C)C(=O)O; NMeV = CN[C@H](C(=O)O)C(C)C; d(β3hA) = C[C@@H](N)CC(=O)O; Piperidide = C1CCN(*)CC1; Ac5c = NC1(C(=O)O)CCCC1; CF3 = FC(F)(F)*; Sar = CNCC(=O)O
Legend:
[1] = biological target: T1, Kras and SOS1 (biotin-tagged human Kras loaded with GDP, His-tagged human SOS1) (Homo sapiens, UniProt P01116, G12D); assay: Protein-protein interaction inhibition between Kras and SOS1 (KrasGl2D-SOS PPI) using AlphaScreen; type: binding; settings: AlphaScreen; biotin-tagged human Kras loaded with GDP, His-tagged human SOS1; read-out: KRAS G12D-SOS PPI IC50
T1 construct: made in house; host or cells: E. coli (stated for Kras only)
Method in brief: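 Binding between SOS1 and Kras is detected as bead-proximity luminescence: illuminate Ni-conjugated donors (680 nm), collect 520-620 nm emission from streptavidin-conjugated acceptors; Kras carries biotin and GDP loaded after purification, SOS1 carries a His tag.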

[2] = test system: Human pancreatic cancer cell line AsPC-1; assay: Measurement of AsPC-1 cell growth inhibition (AsPC-1 CGI); type: cell-based; settings: 96 h
Method in brief: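 AsPC-1 cells in 15% FBS RPMI-1640 were exposed to test compound for 96 hours at 37° C, with CellTiter-Glo as endpoint.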

T1 sequence (P01116 1-188 isoform P01116-2 G12D): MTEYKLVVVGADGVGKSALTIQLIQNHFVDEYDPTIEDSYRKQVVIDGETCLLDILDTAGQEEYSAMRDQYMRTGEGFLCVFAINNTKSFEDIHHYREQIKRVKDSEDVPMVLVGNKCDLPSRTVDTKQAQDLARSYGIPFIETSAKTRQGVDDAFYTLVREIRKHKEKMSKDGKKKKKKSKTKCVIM

Compound	pIC50 [1]	pIC50 [2]
CC[C@H](C)[C@@H]1NC(=O)[C@H](CC(C)C)N(C)C(=O)C[C@@H](C)N(C)C(=O)[C@H](C(C)C)N(C)C(=O)C2(CCCC2)NC(=O)[C@@H]2CCCN2C(=O)[C@H](CCc2ccc(C(F)(F)F)c(Cl)c2)NC(=O)CN(C)C(=O)[C@H](Cc2ccc(C(F)(F)F)cc2)N(C)C(=O)CN(C)C(=O)CN(C)C1=O [Compound 1617] (cyclo([Ac5c][NMeV][NMedβ3hAla][NMeL]I[Sar][Sar][NMePhe(4-CF3)][Sar][hPhe(3-Cl-4-CF3)]P))	8.57	7.00 to 7.30
CC[C@H](C)[C@@H]1NC(=O)[C@H](CC(C)C)N(C)C(=O)C[C@@H](C)NC(=O)[C@H](C(C)C)N(C)C(=O)C2(CCCC2)NC(=O)[C@@H]2CCCN2C(=O)[C@H](CCc2ccc(C(F)(F)F)c(Cl)c2)NC(=O)CN(C)C(=O)[C@H](Cc2ccc(C(F)(F)F)cc2)N(C)C(=O)CN(C)C(=O)CN(C)C1=O [Compound 1620] (cyclo([Ac5c][NMeV][d(β3hA)][NMeL]I[Sar][Sar][NMePhe(4-CF3)][Sar][hPhe(3-Cl-4-CF3)]P))	8.27	7.00 to 7.30
CC[C@H](C)[C@@H]1NC(=O)[C@H](CC(C)C)N(C)C(=O)C[C@@H](C)N(C)C(=O)[C@H](C(C)C)N(C)C(=O)C2(CCCC2)NC(=O)[C@@H]2CCCN2C(=O)[C@H](CCc2ccc(C(F)(F)F)c(Cl)c2)NC(=O)CN(C)C(=O)[C@H](Cc2cccc(Cl)c2)N(C)C(=O)CN(C)C(=O)CN(C)C1=O [Compound 1621] (cyclo([Ac5c][NMeV][NMedβ3hAla][NMeL]I[Sar][Sar][NMePhe(3-Cl)][Sar][hPhe(3-Cl-4-CF3)]P))	8.14	7.00 to 7.30
CC[C@H](C)[C@@H]1NC(=O)[C@H](CC(C)C)N(C)C(=O)C[C@@H](C)NC(=O)[C@H](C(C)C)N(C)C(=O)C2(CCCC2)NC(=O)[C@@H]2CCCN2C(=O)[C@H](CCc2ccc(C(F)(F)F)c(Cl)c2)NC(=O)CN(C)C(=O)[C@H](Cc2ccc(Br)cc2)N(C)C(=O)CN(C)C(=O)CN(C)C1=O [Compound 1625] (cyclo([Ac5c][NMeV][d(β3hA)][NMeL]I[Sar][Sar][NMePhe(4-Br)][Sar][hPhe(3-Cl-4-CF3)]P))	8.14	6.30 to 7.00
CC[C@H](C)[C@@H]1NC(=O)[C@H](CC(C)C)N(C)C(=O)C[C@@H](C(=O)N2CCCCC2)N(C)C(=O)[C@H](C(C)C)N(C)C(=O)C2(CCCC2)NC(=O)[C@@H]2CCCN2C(=O)[C@H](CCc2ccc(C(F)(F)F)c(Cl)c2)NC(=O)CN(C)C(=O)[C@H](Cc2cccc(C)c2)N(C)C(=O)CN(C)C(=O)CN(C)C1=O [Compound 1626] ([NMeL]I[Sar][Sar][NMePhe(3-Me)][Sar][hPhe(3-Cl-4-CF3)]P[Ac5c][NMeV][NMeD]-Piperidide; lactam N-11)	8.36	6.30 to 7.00
CC[C@H](C)[C@@H]1NC(=O)[C@H](CC(C)C)N(C)C(=O)C[C@@H](C(=O)N2CCCCC2)N(C)C(=O)[C@H](C(C)C)N(C)C(=O)C2(CCCC2)NC(=O)[C@@H]2CCCN2C(=O)[C@H](CCc2ccc(C(F)(F)F)c(Cl)c2)NC(=O)CN(C)C(=O)[C@H](Cc2ccc(C(F)(F)F)cc2)N(C)C(=O)CN(C)C(=O)CN(C)C1=O [Compound 1629] ([NMeL]I[Sar][Sar][NMePhe(4-CF3)][Sar][hPhe(3-Cl-4-CF3)]P[Ac5c][NMeV][NMeD]-Piperidide; lactam N-11)	8.60	7.00 to 7.30
CC[C@H](C)[C@@H]1NC(=O)[C@H](CC(C)C)N(C)C(=O)C[C@@H](C(=O)N2CCCCC2)N(C)C(=O)[C@H](C(C)C)N(C)C(=O)C2(CCCC2)NC(=O)[C@@H]2CCCN2C(=O)[C@H](CCc2ccc(C(F)(F)F)c(Cl)c2)NC(=O)CN(C)C(=O)[C@H](Cc2ccc(OC(F)(F)F)cc2)N(C)C(=O)CN(C)C(=O)CN(C)C1=O [Compound 1630] ([NMeL]I[Sar][Sar][NMeY](CF3)[Sar][hPhe(3-Cl-4-CF3)]P[Ac5c][NMeV][NMeD]-Piperidide; lactam N-11)	8.21	6.30 to 7.00
CC[C@H](C)[C@@H]1NC(=O)[C@H](CC(C)C)N(C)C(=O)C[C@@H](C(=O)N2CCCCC2)N(C)C(=O)[C@H](C(C)C)N(C)C(=O)C2(CCCC2)NC(=O)[C@@H]2CCCN2C(=O)[C@H](CCc2ccc(C(F)(F)F)c(Cl)c2)NC(=O)CN(C)C(=O)[C@H](Cc2ccc(F)cc2)N(C)C(=O)CN(C)C(=O)CN(C)C1=O [Compound 1631] ([NMeL]I[Sar][Sar][NMePhe(4-F)][Sar][hPhe(3-Cl-4-CF3)]P[Ac5c][NMeV][NMeD]-Piperidide; lactam N-11)	8.30	6.30 to 7.00
CC[C@H](C)[C@@H]1NC(=O)[C@H](CC(C)C)N(C)C(=O)C[C@@H](C)NC(=O)[C@H](C(C)C)N(C)C(=O)C2(CCCC2)NC(=O)[C@@H]2CCCN2C(=O)[C@H](CCc2ccc(C(F)(F)F)c(Cl)c2)NC(=O)CN(C)C(=O)[C@H](Cc2ccc(C)cc2)N(C)C(=O)CN(C)C(=O)CN(C)C1=O [Compound 1632] (cyclo([Ac5c][NMeV][d(β3hA)][NMeL]I[Sar][Sar][NMePhe(4-Me)][Sar][hPhe(3-Cl-4-CF3)]P))	8.54	6.30 to 7.00
CC[C@H](C)[C@@H]1NC(=O)[C@H](CC(C)C)N(C)C(=O)C[C@@H](C)N(C)C(=O)[C@H](C(C)C)N(C)C(=O)C2(CCCC2)NC(=O)[C@@H]2CCCN2C(=O)[C@H](CCc2ccc(C(F)(F)F)c(Cl)c2)NC(=O)CN(C)C(=O)[C@H](Cc2ccccc2OC(F)(F)F)N(C)C(=O)CN(C)C(=O)CN(C)C1=O [Compound 1633] (cyclo([Ac5c][NMeV][NMedβ3hAla][NMeL]I[Sar][Sar][X23][Sar][hPhe(3-Cl-4-CF3)]P))	7.30	6.30 to 7.00
CC[C@H](C)[C@@H]1NC(=O)[C@H](CC(C)C)N(C)C(=O)C[C@@H](C)N(C)C(=O)[C@H](C(C)C)N(C)C(=O)C2(CCCC2)NC(=O)[C@@H]2CCCN2C(=O)[C@H](CCc2ccc(C(F)(F)F)c(Cl)c2)NC(=O)CN(C)C(=O)[C@H](CCc2ccccc2)N(C)C(=O)CN(C)C(=O)CN(C)C1=O [Compound 1634] (cyclo([Ac5c][NMeV][NMedβ3hAla][NMeL]I[Sar][Sar][NMehPhe][Sar][hPhe(3-Cl-4-CF3)]P))	7.89	7.00 to 7.30
CC[C@H](C)[C@@H]1NC(=O)[C@H](CC(C)C)N(C)C(=O)C[C@@H](C(=O)N2CCCCC2)N(C)C(=O)[C@H](C(C)C)N(C)C(=O)C2(CCCC2)NC(=O)[C@@H]2CCCN2C(=O)[C@H](CCc2ccc(C(F)(F)F)c(Cl)c2)NC(=O)CN(C)C(=O)[C@H](Cc2ccccc2Cl)N(C)C(=O)CN(C)C(=O)CN(C)C1=O [Compound 1636] ([NMeL]I[Sar][Sar][NMePhe(2-Cl)][Sar][hPhe(3-Cl-4-CF3)]P[Ac5c][NMeV][NMeD]-Piperidide; lactam N-11)	7.96	6.30 to 7.00
CC[C@H](C)[C@@H]1NC(=O)[C@H](CC(C)C)N(C)C(=O)C[C@@H](C)N(C)C(=O)[C@H](C(C)C)N(C)C(=O)C2(CCCC2)NC(=O)[C@@H]2CCCN2C(=O)[C@H](CCc2ccc(C(F)(F)F)c(Cl)c2)NC(=O)CN(C)C(=O)[C@H](Cc2cccc(OC(F)(F)F)c2)N(C)C(=O)CN(C)C(=O)CN(C)C1=O [Compound 1637] (cyclo([Ac5c][NMeV][NMedβ3hAla][NMeL]I[Sar][Sar][X38][Sar][hPhe(3-Cl-4-CF3)]P))	7.77	7.00 to 7.30
CC[C@H](C)[C@@H]1NC(=O)[C@H](CC(C)C)N(C)C(=O)C[C@@H](C(=O)N2CCCCC2)N(C)C(=O)[C@H](C(C)C)N(C)C(=O)C2(CCCC2)NC(=O)[C@@H]2CCCN2C(=O)[C@H](CCc2ccc(C(F)(F)F)c(Cl)c2)NC(=O)CN(C)C(=O)[C@H](Cc2cccc(OC(F)(F)F)c2)N(C)C(=O)CN(C)C(=O)CN(C)C1=O [Compound 1640] ([NMeL]I[Sar][Sar][X38][Sar][hPhe(3-Cl-4-CF3)]P[Ac5c][NMeV][NMeD]-Piperidide; lactam N-11)	8.18	6.30 to 7.00
CC[C@H](C)[C@@H]1NC(=O)[C@H](CC(C)C)N(C)C(=O)C[C@@H](C(=O)N2CCCCC2)N(C)C(=O)[C@H](C(C)C)N(C)C(=O)C2(CCCC2)NC(=O)[C@@H]2CCCN2C(=O)[C@H](CCc2ccc(C(F)(F)F)c(Cl)c2)NC(=O)CN(C)C(=O)[C@H](Cc2ccccc2OC(F)(F)F)N(C)C(=O)CN(C)C(=O)CN(C)C1=O [Compound 1641] ([NMeL]I[Sar][Sar][X23][Sar][hPhe(3-Cl-4-CF3)]P[Ac5c][NMeV][NMeD]-Piperidide; lactam N-11)	8.08	6.30 to 7.00
CC[C@H](C)[C@@H]1NC(=O)[C@H](CC(C)C)N(C)C(=O)C[C@@H](C(=O)N2CCCCC2)N(C)C(=O)[C@H](C(C)C)N(C)C(=O)C2(CCCC2)NC(=O)[C@@H]2CCCN2C(=O)[C@H](CCc2ccc(C(F)(F)F)c(Cl)c2)NC(=O)CN(C)C(=O)[C@H](Cc2cccc(Br)c2)N(C)C(=O)CN(C)C(=O)CN(C)C1=O [Compound 1643] ([NMeL]I[Sar][Sar][NMePhe(3-Br)][Sar][hPhe(3-Cl-4-CF3)]P[Ac5c][NMeV][NMeD]-Piperidide; lactam N-11)	8.14	6.30 to 7.00
CC(C)C[C@@H]1NC(=O)[C@H](CC(C)C)N(C)C(=O)C[C@@H](C(=O)N2CCCCC2)N(C)C(=O)[C@H](C2CCCCC2)N(C)C(=O)C2(CCCC2)NC(=O)[C@@H]2CCCN2C(=O)[C@H](CCc2ccc(C(F)(F)F)c(Cl)c2)NC(=O)CN(C)C(=O)[C@H](CC2CCCCC2)N(C)C(=O)CN(C)C(=O)CN(C)C1=O [Compound 1650] ([NMeL]L[Sar][Sar][NMeCha][Sar][hPhe(3-Cl-4-CF3)]P[Ac5c][NMeChg][NMeD]-Piperidide; lactam N-11)	8.59	6.30 to 7.00
CC[C@H](C)[C@@H]1NC(=O)[C@H](CC(C)C)N(C)C(=O)C[C@@H](C(=O)N2CCCCC2)N(C)C(=O)[C@H](C2CCCCC2)N(C)C(=O)C2(CCCC2)NC(=O)[C@@H]2CCCN2C(=O)[C@H](CCc2ccc(C(F)(F)F)c(Cl)c2)NC(=O)CN(C)C(=O)[C@H](CC(C)C)N(C)C(=O)CN(C)C(=O)CN(C)C1=O [Compound 1652] ([NMeL]I[Sar][Sar][NMeL][Sar][hPhe(3-Cl-4-CF3)]P[Ac5c][NMeChg][NMeD]-Piperidide; lactam N-11)	8.51	6.30 to 7.00

Source: patent US12371454B2, “Cyclic peptide compound having Kras inhibitory action” (priority 2019, dated 2025)
